pIC50: −log10 of the molar value.
Assays:
MGC-803 = test: Antiproliferative activity against human MGC803 cells incubated for 72 hrs by MTT assay; assay type: functional, cell-based; conditions: MGC-803, 72 h
Histone deacetylase 1 [1] = target: T1, Histone deacetylase 1 (Homo sapiens, UniProt Q13547); conditions: dose 100.0 nM, time 40.0 min
[2] = target: T2, Protein deacetylase HDAC6 (Homo sapiens) (UniProt Q9UBN7); conditions: Sf9, dose 100.0 nM, time 40.0 min
T2 sequence (whole entry): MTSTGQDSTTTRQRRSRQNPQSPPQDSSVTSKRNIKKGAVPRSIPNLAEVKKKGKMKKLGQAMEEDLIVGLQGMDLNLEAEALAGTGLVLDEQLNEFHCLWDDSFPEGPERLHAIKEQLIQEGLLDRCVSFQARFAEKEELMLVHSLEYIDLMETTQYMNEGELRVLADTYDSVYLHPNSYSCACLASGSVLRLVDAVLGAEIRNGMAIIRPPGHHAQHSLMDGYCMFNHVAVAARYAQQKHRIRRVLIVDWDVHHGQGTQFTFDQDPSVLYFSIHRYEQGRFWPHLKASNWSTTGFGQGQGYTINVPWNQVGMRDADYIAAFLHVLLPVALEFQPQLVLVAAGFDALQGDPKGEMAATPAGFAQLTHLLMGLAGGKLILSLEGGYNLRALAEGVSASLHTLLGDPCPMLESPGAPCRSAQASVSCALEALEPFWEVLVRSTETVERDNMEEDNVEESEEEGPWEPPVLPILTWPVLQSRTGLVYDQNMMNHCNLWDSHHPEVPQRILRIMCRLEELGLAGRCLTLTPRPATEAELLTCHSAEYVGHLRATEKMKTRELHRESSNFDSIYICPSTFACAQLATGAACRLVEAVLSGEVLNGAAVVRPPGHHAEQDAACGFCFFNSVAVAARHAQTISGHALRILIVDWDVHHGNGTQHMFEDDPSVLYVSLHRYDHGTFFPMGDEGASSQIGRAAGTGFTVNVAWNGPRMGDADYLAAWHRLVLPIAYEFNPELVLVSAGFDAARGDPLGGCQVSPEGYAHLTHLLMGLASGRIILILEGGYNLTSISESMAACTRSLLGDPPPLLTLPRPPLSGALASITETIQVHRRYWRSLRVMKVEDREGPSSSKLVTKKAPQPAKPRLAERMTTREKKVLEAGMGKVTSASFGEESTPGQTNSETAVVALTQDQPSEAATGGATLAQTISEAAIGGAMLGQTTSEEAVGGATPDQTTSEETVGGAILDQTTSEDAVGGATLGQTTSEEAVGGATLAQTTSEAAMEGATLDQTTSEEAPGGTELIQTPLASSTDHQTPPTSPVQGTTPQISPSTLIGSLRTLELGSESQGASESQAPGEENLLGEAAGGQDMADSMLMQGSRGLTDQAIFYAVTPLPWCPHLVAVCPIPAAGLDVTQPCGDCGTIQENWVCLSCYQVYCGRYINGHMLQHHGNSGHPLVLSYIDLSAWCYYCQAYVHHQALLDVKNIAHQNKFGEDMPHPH

Histone deacetylase 1 [3] = target: T1, Histone deacetylase 1; test: Inhibition of recombinant human HDAC1 using Z-(Ac)-Lys-AMC as substrate incubated for 40 mins by fluorescence based assay
[4] = target: T3, Protein deacetylase HDAC6 (Homo sapiens, UniProt Q9UBN7); test: Inhibition of recombinant full length human HDAC6 expressed in baculovirus infected Sf9 cells using Z-(Ac)-Lys-AMC as substrate incubated for 40 mins by fluorescence based assay
T3 sequence (Q9UBN7 whole entry): T2 sequence (whole entry)

T1 sequence (Q13547 whole entry): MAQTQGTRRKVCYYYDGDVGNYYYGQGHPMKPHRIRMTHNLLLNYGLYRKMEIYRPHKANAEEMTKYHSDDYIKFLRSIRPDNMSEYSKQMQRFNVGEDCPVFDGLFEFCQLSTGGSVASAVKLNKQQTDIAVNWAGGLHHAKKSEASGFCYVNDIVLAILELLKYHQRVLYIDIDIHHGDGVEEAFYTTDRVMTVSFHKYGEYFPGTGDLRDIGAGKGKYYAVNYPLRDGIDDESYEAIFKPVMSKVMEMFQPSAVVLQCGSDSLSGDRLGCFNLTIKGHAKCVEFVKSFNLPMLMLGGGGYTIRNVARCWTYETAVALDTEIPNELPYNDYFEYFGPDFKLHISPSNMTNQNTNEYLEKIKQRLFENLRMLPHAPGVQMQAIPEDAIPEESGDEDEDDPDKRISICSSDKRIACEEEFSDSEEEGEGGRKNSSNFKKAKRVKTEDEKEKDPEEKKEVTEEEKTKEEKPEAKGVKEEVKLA

Structure (SMILES)	pIC50 (MGC-803)	inhibition (Histone deacetylase 1 [1]) [%]	inhibition [2] [%]	pIC50 (Histone deacetylase 1 [3])	pIC50 [4]
O=C(NO)c1ccc(NCc2nc(-c3ccccc3Cl)nn2-c2ccccc2)cc1	< 4.70	15.6	75	5.42	6.73
CC(C)c1ccc(-n2nc(-c3ccccc3)nc2CNc2ccc(C(=O)NO)cc2)cc1		17.3	52.6		
Cc1ccc(-c2nc(CNc3ccc(C(=O)NO)cc3)n(-c3ccccc3)n2)o1		22.3	60.7		
COc1ccc(-n2nc(-c3ccc(O)cc3)nc2CNc2ccc(C(=O)NO)cc2)cc1	< 4.70	25.9	70.3	5.37	6.99
O=C(NO)c1ccc(NCc2nc(-c3ccccc3)nn2-c2ccccc2)cc1	4.75	19	72.6	5.60	6.95
O=C(NO)c1ccc(NCc2nc(-c3cccnc3)nn2-c2ccccc2)cc1		12.9	57.7		
Cc1ccc(-n2nc(-c3ccccc3)nc2CNc2ccc(C(=O)NO)cc2)cc1		24.6	60.7	5.77	6.51
Cc1ccccc1-n1nc(-c2ccccc2)nc1CNc1ccc(C(=O)NO)cc1		17	57.1		
O=C(O)c1ccc(NCc2nc(-c3ccccc3)nn2-c2ccccc2)cc1		2.1	-0.4		
O=C(NO)c1ccc(NCc2nc(-c3ccc(Cl)s3)nn2-c2ccccc2)cc1		8.3	39.8		
Nc1ccccc1NC(=O)c1ccc(NCc2nc(-c3ccccc3)nn2-c2ccccc2)cc1		32	5		
O=C(NO)c1ccc(NCc2nc(-c3ccccc3)nn2-c2ccc(F)cc2)cc1	4.98	16.3	67.6	5.74	6.56
CCc1ccc(-n2nc(-c3ccccc3)nc2CNc2ccc(C(=O)NO)cc2)cc1		10.8	38.3		
O=C(NO)c1ccc(NCc2nc(-c3ccncc3)nn2-c2ccccc2)cc1		7.5	30.8		
COc1ccc(-n2nc(-c3ccccc3)nc2CNc2ccc(C(=O)NO)cc2)cc1	5.15	26.2	63.4	6.05	6.90
O=C(NO)c1ccc(NCc2nc(-c3ccccc3)nn2-c2ccc(Cl)cc2)cc1		18	55.4		
O=C(NO)c1ccc(NCc2nc(-c3ccc(Cl)c(Cl)c3)nn2-c2ccccc2)cc1		7.6	34.5		
O=C(NO)c1ccc(NCc2nc(-c3sccc3Br)nn2-c2ccccc2)cc1	5.20	23.7	71.1	5.68	7.26
COc1ccc(-c2nc(CNc3ccc(C(=O)NO)cc3)n(-c3ccccc3)n2)cc1	< 4.70	33.4	77.6	5.54	6.79
Cc1cc(C)cc(-n2nc(-c3ccccc3)nc2CNc2ccc(C(=O)NO)cc2)c1		12.4	49.8		
O=C(NO)c1ccc(NCc2nc(-c3ccccc3)nn2-c2ccc(Br)cc2)cc1	5.03	18.2	65.9	5.49	5.76
O=C(NO)c1ccc(NCc2nc(-c3ccsc3)nn2-c2ccccc2)cc1		15.2	53.4		
Cc1ccccc1-c1nc(CNc2ccc(C(=O)NO)cc2)n(-c2ccccc2)n1		16.5	53.2		
O=C(NO)c1ccc(NCc2nc(-c3ccccc3)nn2-c2cccc(Cl)c2)cc1	4.86	14.7	62.3	5.36	6.17

Structure (SMILES)	pIC50 (MGC-803)	inhibition (Histone deacetylase 1 [1]) [%]	inhibition [2] [%]	pIC50 (Histone deacetylase 1 [3])	pIC50 [4]
O=C(NO)c1ccc(NCc2nc(-c3ccco3)nn2-c2ccccc2)cc1		16.7	59.9		
Cc1ccc(-n2nc(-c3ccccc3)nc2CNc2ccc(C(=O)NO)cc2)cc1C		11	53		
Cc1cccc(-c2nc(CNc3ccc(C(=O)NO)cc3)n(-c3ccccc3)n2)c1	5.06	13	64.1	5.26	6.55
Cc1ccsc1-c1nc(CNc2ccc(C(=O)NO)cc2)n(-c2ccccc2)n1	5.05	26.3	72.1	5.49	7.51
O=C(NO)c1ccc(NCc2nc(-c3ccc(F)cc3)nn2-c2ccccc2)cc1	5.05	20.8	70.9	5.47	6.94
O=C(NO)c1ccc(NCc2nc(-c3cccc4cnccc34)nn2-c2ccccc2)cc1		11.2	40.2		
CNC(=O)c1ccc(NCc2nc(-c3ccccc3)nn2-c2ccccc2)cc1		-0.55	-3.6		
O=C(NO)c1ccc(NCc2nc(-c3ccc(Br)o3)nn2-c2ccccc2)cc1		13.8	55.8		
O=C(NO)c1ccc(NCc2nc(-c3ccccc3)nn2-c2ccc(C(F)(F)F)cc2)cc1		12.8	38.9		
Cc1ccc(-c2nc(CNc3ccc(C(=O)NO)cc3)n(-c3ccccc3)n2)cc1	< 4.70	20.3	62.2	5.51	6.65
O=C(NO)c1ccc(NCc2nc(-c3ccccc3)nn2-c2ccccc2Cl)cc1	5.02	17	64.6	5.51	6.17
CC(C)c1ccc(-c2nc(CNc3ccc(C(=O)NO)cc3)n(-c3ccccc3)n2)cc1		4.3	27.6		
O=C(NO)c1ccc(NCc2nc(-c3ccc(C(F)(F)F)cc3)nn2-c2ccccc2)cc1		4.9	41.6		
O=C(NO)c1ccc(NCc2nc(-c3ccccn3)nn2-c2ccccc2)cc1		16	58.6		
O=C(NO)c1ccc(NCc2nc(-c3ccc(Br)cc3)nn2-c2ccccc2)cc1		13.2	54.7		
CCc1ccc(-c2nc(CNc3ccc(C(=O)NO)cc3)n(-c3ccccc3)n2)cc1		13.2	54.6		
O=C(NO)c1ccc(NCc2nc(-c3cccs3)nn2-c2ccc(O)cc2)cc1	< 4.70	38.4	79.6	5.82	7.47
O=C(NO)c1ccc(NCc2nc(-c3ccc(Cl)cc3)nn2-c2ccccc2)cc1	5.22	19.5	67.2	5.62	6.74
O=C(NO)c1ccc(NCc2nc(-c3cccc(Cl)c3)nn2-c2ccccc2)cc1	5.24	17	61.2	5.73	6.94
Cc1cccc(-n2nc(-c3ccccc3)nc2CNc2ccc(C(=O)NO)cc2)c1	4.88	18.4	66	5.41	6.41
NC(=O)c1ccc(NCc2nc(-c3ccccc3)nn2-c2ccccc2)cc1		-2.6	-4.4		
O=C(NO)c1ccc(NCc2nc(-c3cc4ccccc4s3)nn2-c2ccccc2)cc1	5.21	26	65.5	5.84	6.49
NNC(=O)c1ccc(NCc2nc(-c3ccccc3)nn2-c2ccccc2)cc1		4.1	10		
